Each structure is given as a SMILES string.

One assay relates to MDA-MB-231 cells. Briefly: Cell proliferation assay (CellTiter-Glo), MDA-MB-231. Type of assay: cell-based. The conditions noted are these: 72 h treatment, Celltiter-Glo luminescence. In outline:
(§1)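 MDA-MB-231 (RPMI-1640/10% FBS) and EVSA-T (MEM/10% FBS) cells, 10000 cells/well, exposed 72 h to compound at […]. Viability read by CellTiter-Glo luminescence after 15 min at room temperature. IC50 from control-normalised curve fitting.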
(In general: Cellular ATP, detected with luciferase, serves as a proxy for viable cell number.)

The test system of the next assay is EVSA-T cells. Description: Cell proliferation assay (CellTiter-Glo), EVSA-T. Format: cell-based. The conditions noted are these: 72 h treatment, Celltiter-Glo luminescence. In short, it runs like this: as §1

As to `CC(=O)N(C)c1nc2c(Cc3ccc(F)cc3)cc3c(n2n1)C(C)(C)CN3C(=O)CN1C[C@@H](C)NC[C@@H]1CN1CCOC[C@H]1C` [Compound 238, N-(4-(4-fluorobenzyl)-8,8-dimethyl-6-(2-((2R,5R)-5-methy 1-2-(((R)-3-methylmorpholino)methyl)piperazin-1-yl)acetyl)-7,8-dihydro-6H-pyrrolo[2,3-e][1,2,4]triazolo[1,5-a]pyridin-2-yl)-N-methylacetamide], the IC50 (commonly the concentration needed to halve the response being measured) in the assay with MDA-MB-231 cells (Homo sapiens, MDA-MB-231, 72 h) was 31 nM; in the assay with EVSA-T cells (Homo sapiens, EVSA-T, 72 h), 1.3 nM.

With `C[C@@H]1CN(CC(=O)N2CC(C)(C)c3c2cc(Cc2ccc(F)cc2)c2ncnn32)[C@@H](CN2CCOC[C@H]2C)CN1` [Example 14, 1-(4-(4-fluorobenzyl)-8,8-dimethyl-7,8-dihydro-6H-pyrrolo[2,3-e][1,2,4]triazolo[1,5-a]pyridin-6-yl)-2-((2R,5R)-5-methyl-2-(((R)-3-methylmorpholino)methyl)piperazin-1-yl)ethan-1-one], the IC50 in the assay on MDA-MB-231 cells (Homo sapiens, MDA-MB-231, 72 h) is 42 nM; with EVSA-T cells (Homo sapiens, EVSA-T, 72 h), 6 nM.

For `C[C@@H]1CN(CC(=O)N2CC(C)(C)c3c2cc(Cc2ccc(F)cc2)c2nnc(C(F)(F)F)n32)[C@@H](CN2CCOC[C@H]2C)CN1` [Example 13, 1-(4-(4-fluorobenzyl)-8,8-dimethyl-1-(trifluoromethyl)-7,8-dihydro-6H-pyrrolo[2,3-e][1,2,4]triazolo[4,3-a]pyridin-6-yl)-2-((2R,5R)-5-methyl-2-(((R)-3-methylmorpholino)methyl)piperazin-1-yl)ethan-1-one], the IC50 was found to be 170 nM in the assay with MDA-MB-231 cells (Homo sapiens, MDA-MB-231, 72 h) and 9 nM in the assay with EVSA-T cells (Homo sapiens, EVSA-T, 72 h).

On to `C[C@@H]1CN(CC(=O)N2CC(C)(C)c3c2cc(Cc2ccc(F)cc2)c2nn(CCN(C)C)c(=O)n32)[C@@H](CN2CCOC[C@H]2C)CN1` [Compound 243, 2-(2-(dimethylamino)ethyl)-4-(4-fluorobenzyl)-8,8-dimethyl-6-(2-((2R,5R)-5-methyl-2-(((R)-3-methylmorpholino)methyl)piperazin-1-yl)acetyl)-2,6,7,8-tetrahydro-1H-pyrrolo[2,3-e][1,2,4]triazolo[4,3-a]pyridin-1-one], for which the IC50 with MDA-MB-231 cells (Homo sapiens, MDA-MB-231, 72 h) turned out to be 95 nM; in the assay with EVSA-T cells (Homo sapiens, EVSA-T, 72 h), 14.5 nM.

Regarding `COCCn1nc2c(Cc3ccc(F)cc3)cc3c(n2c1=O)C(C)(C)CN3C(=O)CN1C[C@@H](C)NC[C@@H]1CN1CCOC[C@H]1C` [Compound 227, 4-(4-fluorobenzyl)-2-(2-methoxyethyl)-8,8-dimethyl-6-(2-((2R,5R)-5-methyl-2-(((R)-3-methylmorpholino)methyl)piperazin-1-yl)acetyl)-2,6,7,8-tetrahydro-1H-pyrrolo[2,3-e][1,2,4]triazolo[4,3-a]pyridin-1-one], the IC50 was 82 nM with MDA-MB-231 cells (Homo sapiens, MDA-MB-231, 72 h) and 2 nM in the assay on EVSA-T cells (Homo sapiens, EVSA-T, 72 h).

Regarding `C[C@@H]1CN(CC(=O)N2CC(C)(C)c3c2cc(Cc2ccc(F)cc2)c2nn(C4CCC4O)c(=O)n32)[C@@H](CN2CCOC[C@H]2C)CN1` (stereo partly drawn) [Compound 273B, 4-(4-fluorobenzyl)-2-(2-hydroxycyclobutyl)-8,8-dimethyl-6-(2-((2R,5R)-5-methyl-2-(((R)-3-methylmorpholino)methyl)piperazin-1-yl)acetyl)-2,6,7,8-tetrahydro-1H-pyrrolo[2,3-e][1,2,4]triazolo[4,3-a]pyridin-1-one], the IC50 with MDA-MB-231 cells turned out to be 14 nM; in the assay with EVSA-T cells, 1.7 nM.

Regarding `C[C@@H]1CN(CC(=O)N2CC(C)(C)c3c2cc(Cc2ccc(F)cc2)c2nc(C(F)(F)F)cn32)[C@@H](CN2CCOC[C@H]2CF)CN1` [Compound 167, 1-(4-(4-fluorobenzyl)-8,8-dimethyl-2-(trifluoromethyl)-7,8-dihydro-6H-imidazo[1,2-a]pyrrolo[2,3-e]pyridin-6-yl)-2-((2R,5R)-2-((3-(fluoromethyl)morpholino)methyl)-5-methylpiperazin-1-yl)ethan-1-one], the IC50 with MDA-MB-231 cells (Homo sapiens, MDA-MB-231, 72 h) was determined as 120 nM; in the assay on EVSA-T cells (Homo sapiens, EVSA-T, 72 h), 16 nM.

Take `C[C@@H]1CN(CC(=O)N2CC(C)(C)c3c2cc(Cc2ccc(F)cc2)c2nc(CF)nn32)[C@@H](CN2CCOC[C@H]2C)CN1` [Compound 144, 1-(4-(4-fluorobenzyl)-2-(fluoromethyl)-8,8-dimethyl-7,8-dihydro-6H-pyrrolo[2,3-e][1,2,4]triazolo[1,5-a]pyridin-6-yl)-2-((2R,5R)-5-methyl-2-(((R)-3-methylmorpholino)methyl)piperazin-1-yl)ethan-1-one]: the IC50 in the assay on MDA-MB-231 cells (Homo sapiens, MDA-MB-231, 72 h) was found to be 51 nM; in the assay on EVSA-T cells (Homo sapiens, EVSA-T, 72 h), 3 nM.

Take `C[C@@H]1CN(CC(=O)N2CC(C)(C)c3c2cc(Cc2ccc(F)cc2N)c2ncnn32)[C@@H](CN2CCOC[C@H]2C)CN1` [Compound 129, 1-(4-(2-amino-4-fluorobenzyl)-8,8-dimethyl-7,8-dihydro-6H-pyrrolo[2,3-e][1,2,4]triazolo[1,5-a]pyridin-6-yl)-2-((2R,5R)-5-methyl-2-(((R)-3-methylmorpholino)methyl)piperazin-1-yl)ethan-1-one]: the IC50 with MDA-MB-231 cells (Homo sapiens, MDA-MB-231, 72 h) was 46 nM; in the assay with EVSA-T cells (Homo sapiens, EVSA-T, 72 h), 11 nM.

As for `C[C@@H]1CN(CC(=O)N2CC(C)(C)c3c2cc(Cc2ccc(F)cc2)c2nn(CC4(O)CCC4)c(=O)n32)[C@@H](CN2CCOC[C@H]2C)CN1` [Compound 262, 4-(4-fluorobenzyl)-2-((1-hydroxycyclobutyl)methyl)-8,8-dimethyl-6-(2-((2R,5R)-5-methyl-2-(((R)-3-methylmorpholino)methyl)piperazin-1-yl)acetyl)-2,6,7,8-tetrahydro-1H-pyrrolo[2,3-e][1,2,4]triazolo[4,3-a]pyridin-1-one], the IC50 with MDA-MB-231 cells (Homo sapiens, MDA-MB-231, 72 h) stood at 12.5 nM; in the assay on EVSA-T cells (Homo sapiens, EVSA-T, 72 h) it was 1.3 nM.

For `COCC(COC)n1nc2c(Cc3ccc(F)cc3)cc3c(n2c1=O)C(C)(C)CN3C(=O)CN1C[C@@H](C)NC[C@@H]1CN1CCOC[C@H]1C` [Compound 261, 2-(1,3-dimethoxypropan-2-yl)-4-(4-fluorobenzyl)-8,8-dimethyl-6-(2-((2R,5R)-5-methyl-2-(((R)-3-methylmorpholino)methyl)piperazin-1-yl)acetyl)-2,6,7,8-tetrahydro-1H-pyrrolo[2,3-e][1,2,4]triazolo[4,3-a]pyridin-1-one], the IC50 was 17 nM with MDA-MB-231 cells (Homo sapiens, MDA-MB-231, 72 h) and 3.2 nM with EVSA-T cells (Homo sapiens, EVSA-T, 72 h).

Take `C[C@@H]1CN(CC(=O)N2CC(C)(C)c3c2cc(Cc2ccc(F)cc2F)c2ncnn32)[C@@H](CN2CCOC[C@H]2C)CN1` [Compound 40, 1-(4-(2,4-difluorobenzyl)-8,8-dimethyl-7,8-dihydro-6H-pyrrolo[2,3-e][1,2,4]triazolo[1,5-a]pyridin-6-yl)-2-((2R,5R)-5-methyl-2-(((R)-3-methylmorpholino)methyl)piperazin-1-yl)ethan-1-one]: the IC50 in the assay with MDA-MB-231 cells (Homo sapiens, MDA-MB-231, 72 h) worked out at 59 nM; in the assay with EVSA-T cells (Homo sapiens, EVSA-T, 72 h) it was 3 nM.

For the compound `C[C@@H]1CN(CC(=O)N2CC(C)(C)c3c2cc(Cc2ccc(F)cc2)c2ncnn32)[C@@H](CN2CCN(CC(F)(F)F)C[C@H]2C)CN1` [Compound 63, 1-(4-(4-fluorobenzyl)-8,8-dimethyl-7,8-dihydro-6H-pyrrolo[2,3-e][1,2,4]triazolo[1,5-a]pyridin-6-yl)-2-((2R,5R)-5-methyl-2-(((R)-2-methyl-4-(2,2,2-trifluoroethyl)piperazin-1-yl)methyl)piperazin-1-yl)ethan-1-one], the IC50 in the assay with MDA-MB-231 cells (Homo sapiens, MDA-MB-231, 72 h) is 28 nM; with EVSA-T cells (Homo sapiens, EVSA-T, 72 h), 3 nM.

(Values after patent US20250179073A1, “TRICYCLIC HETEROCYCLE COMPOUNDS AS IAP ANTAGONISTS” (Ascentage Pharma (Suzhou) Co., Ltd., priority 2022, published 2025).)
